{"source": "paper PMC10291552", "about": "“Computational Design, Synthesis, and Biological Evaluation of Diimidazole Analogues Endowed with Dual PCSK9/HMG-CoAR-Inhibiting Activity” (Journal of Medicinal Chemistry, 2023)", "key": {"[1]": {"assay": "Metabolic stability in mouse liver microsomes (with UDPGA)", "details": "for Cli: mouse liver microsomes 0.5 mg/mL, 5 μM, cofactors + UDPGA (Phase II stability)", "experimental": "(§1) After the pre-incubation period, the reaction was started by adding the cofactor mixture (NADP, Glc6P, and Glc6P-DH in 2% sodium bicarbonate) and UDPGA. Samples (25 μL) were taken at times of 0, 10, 20, 30, 45, and 60 min and then mixed with 150 μL of ACN to stop the reaction. After centrifugation, the supernatants were analyzed by LC–MS/MS. A control sample without cofactors was included in the assay in order to check the stability of the test compounds in the matrix after 60 min. 7-Ethoxycoumarin (7-EC) and 7-hydroxycoumarin (7-OHC) were contemporarily tested as reference standards for the Phase I and Phase II reactions, respectively."}, "[2]": {"assay": "Metabolic stability in human liver microsomes (with UDPGA)", "details": "for Cli: human liver microsomes 0.5 mg/mL, 5 μM, cofactors + UDPGA (Phase II stability)", "experimental": "as §1"}, "[3]": {"target": "T1, HMG-CoAR (catalytic domain) (Homo sapiens, UniProt P04035)", "T1 construct": "and finally, HMG-CoAR (catalytic domain) (2 μL); purchased Sigma Aldrich", "T1 sequence (P04035 426-888 limits assumed)": "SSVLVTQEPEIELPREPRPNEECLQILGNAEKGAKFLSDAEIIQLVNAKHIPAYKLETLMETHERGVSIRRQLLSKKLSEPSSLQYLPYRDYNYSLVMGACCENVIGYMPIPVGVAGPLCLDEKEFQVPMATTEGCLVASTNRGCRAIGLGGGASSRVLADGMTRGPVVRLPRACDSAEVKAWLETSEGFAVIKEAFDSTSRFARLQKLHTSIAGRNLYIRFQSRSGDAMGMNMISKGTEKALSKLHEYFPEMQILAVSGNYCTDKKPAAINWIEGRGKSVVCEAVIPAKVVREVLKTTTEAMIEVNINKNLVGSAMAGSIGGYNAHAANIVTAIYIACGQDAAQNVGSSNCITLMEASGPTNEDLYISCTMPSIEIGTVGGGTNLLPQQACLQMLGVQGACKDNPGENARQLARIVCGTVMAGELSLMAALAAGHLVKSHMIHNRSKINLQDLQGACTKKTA", "assay": "HMG-CoAR activity assay (Sigma kit, NADPH oxidation at 340 nm)", "type": "biochemical", "details": "10–500 μM tested, 37 °C", "protocol": "The experiments were carried out following the manufacturer’s instructions and optimized protocol.[43] The assay buffer, NADPH, substrate solution, and HMG-CoAR were provided in the HMG-CoAR Assay Kit (Sigma Aldrich SRL, Milan, Italy). The experiments were carried out following the manufacturer’s instructions at 37 °C. In particular, each reaction (200 μL) was prepared adding the reagents in the following order: 1× assay buffer, a 10–500 μM dose of sonicated Dim analogues or vehicle (C), NADPH (4 μL), the substrate solution (12 μL), and finally, HMG-CoAR (catalytic domain) (2 μL). Subsequently, the samples were mixed, and the absorbance at 340 nm was read by a microplate reader (Synergy H1, Winooski, VT, USA) at times of 0 and 10 min. The HMGCoAR-dependent oxidation of NADPH and the inhibition properties of the peptides were measured by absorbance reduction, which is directly proportional to enzyme activity."}, "PCSK9/LDLR [4]": {"target": "T2, PCSK9/LDLR (Homo sapiens, UniProt Q8NBP7)", "T2 construct": "purchased CircuLex (CycLex Co., Nagano, Japan)", "T2 sequence (Q8NBP7 153-692)": "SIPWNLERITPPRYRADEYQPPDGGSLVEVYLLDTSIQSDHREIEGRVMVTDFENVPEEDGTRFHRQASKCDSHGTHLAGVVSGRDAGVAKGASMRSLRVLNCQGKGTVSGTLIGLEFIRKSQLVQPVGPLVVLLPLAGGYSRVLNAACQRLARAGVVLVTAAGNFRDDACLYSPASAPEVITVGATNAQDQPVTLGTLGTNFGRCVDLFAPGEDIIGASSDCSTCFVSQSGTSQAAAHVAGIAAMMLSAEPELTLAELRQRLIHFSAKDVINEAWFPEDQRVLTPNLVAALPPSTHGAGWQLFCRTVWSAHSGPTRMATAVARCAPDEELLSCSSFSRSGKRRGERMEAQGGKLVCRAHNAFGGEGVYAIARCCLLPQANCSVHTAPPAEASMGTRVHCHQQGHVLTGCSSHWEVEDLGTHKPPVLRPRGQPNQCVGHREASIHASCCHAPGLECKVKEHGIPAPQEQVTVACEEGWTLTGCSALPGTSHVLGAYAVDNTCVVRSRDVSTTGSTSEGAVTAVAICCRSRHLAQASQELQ", "T2 sequence (Q8NBP7 31-152 limits assumed)": "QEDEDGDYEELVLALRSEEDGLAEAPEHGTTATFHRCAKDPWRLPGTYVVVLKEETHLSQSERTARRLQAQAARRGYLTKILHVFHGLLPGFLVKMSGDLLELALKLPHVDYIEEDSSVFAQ", "assay": "In vitro PCSK9-LDLR binding assay (CircuLex/CycLex kit)", "details": "for IC50: mean ± SD, three independent experiments, Hill slope fixed at −1", "protocol": "Diimidazole analogues (0.1–1 × 10^6 nM) were tested using the in vitro PCSK9-LDLR binding assay (CycLex Co., Nagano, Japan) following the manufacturer’s instructions and with the conditions already optimized.[15] Briefly, the plates were pre-coated with a recombinant LDLR-AB domain containing the binding site of PCSK9. Before starting the assay, the tested analogues and/or the vehicle in DMSO were sonicated at 37 °C, diluted in the reaction buffer, and added in microcentrifuge tubes. Afterward, the reaction mixtures were added in each well of the microplate, and the reaction was started by adding His-tagged PCSK9 solution (3 μL). The microplate was allowed to incubate for 2 h at room-temperature (RT) shaking at 300 rpm on an orbital microplate shaker. Subsequently, the wells were washed 4 times with the wash buffer. After the last wash, the biotinylated anti-His-tag monoclonal antibody (100 μL) was added and incubated at RT for 1 h shaking at 300 rpm. After incubation, the wells were washed 4 times with wash buffer. After the last wash, 100 μL of HRP-conjugated streptavidin were added, and the plate was incubated for 20 min at RT. After incubation, the wells were washed 4 times with wash buffer. Finally, the substrate reagent (tetra-methylbenzidine) was added, and the plate was incubated for 10 min at RT shaking at ca. 300 rpm. The reaction was stopped with 2.0 M sulfuric acid, and the absorbance at 450 nm was measured using a Synergy H1 fluorescent plate reader (Winooski, VT, USA).\nAll the data sets were checked for normal distribution by D’Agostino and Pearson tests. Since they are all normally disturbed with p values of […], we proceeded with statistical analyses of one-way ANOVA followed by Tukey’s post hoc test using Graphpad Prism 9 (San Diego, CA, USA). Values were reported as means ± s.d.; p values of <0.05 were considered to be significant. The IC50 values of samples inhibiting PCSK9-LDLR binding were evaluated by using the log(inhibitor) vs response model of GraphPad Prism 9 (San Diego, CA, USA). This model assumes that the dose–response curves has a standard slope, equal to a Hill slope (or slope factor) of −1.0. This is the slope expected when a ligand binds to a receptor following the law of mass action and is the slope expected of a dose–response curve when the second messenger created by receptor stimulation binds to its receptor by the law of mass action (https://graphpad.com/guides/prism/latest/curvefitting/reg_dr_inhibit.htm)."}, "Solubility in PBS pH 7.4": {"assay": "Solubility in PBS pH 7.4", "type": "physicochemical", "details": "PBS buffer, pH 7.4, PBS, 37 °C", "protocol": "Solubility was tested after incubation of the test item at 200 μM and 500 μM in PBS buffer pH 7.4 starting from an initial DMSO solution of Dim22 100 mM. Samples in duplicates were incubated at 37 °C for 90 min, were then centrifuged at 12500 rpm for 5 min. Supernatants were analyzed in LC/MS together with a solution of the compound in ACN."}, "PCSK9/LDLR [5]": {"target": "T2, PCSK9/LDLR", "details": "cited from earlier work"}, "[6]": {"target": "T1, HMG-CoAR (catalytic domain)", "parameters": "method as in doi:10.1016/j.jff.2017.02.009", "details": "cited from earlier work"}}, "note": "Values joined by “and” are separate entries in the source; they are usually repeats but may differ in a detail not shown here. Identical values can stand only once. Like-named read-outs stand apart in the source and are kept apart here.", "data": [{"compound": "CCOc1ccc2ccc(=O)oc2c1", "note": "[7-EC, 7-Ethoxycoumarin, reference compound]", "values": [{"measurement": "Cli", "setting": "[1]", "value": 290.9, "unit": "μL/min/mg protein"}, {"measurement": "Cli", "setting": "[2]", "value": 46.1, "unit": "μL/min/mg protein"}]}, {"compound": "O=c1ccc2ccc(O)cc2o1", "note": "[7-OHC, 7-hydroxycoumarin, reference compound]", "values": [{"measurement": "Cli", "setting": "[1]", "value": 533.3, "unit": "μL/min/mg protein"}, {"measurement": "Cli", "setting": "[2]", "value": 390.0, "unit": "μL/min/mg protein"}]}, {"compound": "CNCCCCCn1cncc1-c1ncc(-c2ccc3ccccc3c2)n1CCCC(C)(C)C", "note": "[Dim2, 5-(1-(4,4-Dimethylpentyl)-5-(naphthalen-2-yl)-1H,3′H-[2,4′-biimidazol]-3′-yl)-N-methylpentan-1-amine]", "values": [{"measurement": "IC50", "setting": "[3]", "value": "40500 ± 15200", "unit": "nM"}, {"measurement": "IC50", "setting": "PCSK9/LDLR [4]", "value": "1990 ± 1650", "unit": "nM"}, {"measurement": "PCSK9 activity, times less active than Dim16", "setting": "PCSK9/LDLR [4]; ratio versus Dim16", "value": "about 2500"}]}, {"compound": "CNCCCCCn1cncc1-c1ncc(-c2ccc3ccccc3c2)n1CC1CCCCC1", "note": "[Dim21, 5-(1-(Cyclohexylmethyl)-5-(naphthalen-2-yl)-1H,3′H-[2,4′-biimidazol]-3’-yl)-N-methylpentan-1-amine]", "values": [{"measurement": "IC50", "setting": "[3]", "value": "38400 ± 12700", "unit": "nM"}, {"measurement": "IC50", "setting": "PCSK9/LDLR [4]", "value": "4500 ± 500", "unit": "nM"}]}, {"compound": "CNCCCCCn1c(-c2ncc(-c3ccc4ccccc4c3)n2CC2CCCCC2)cnc1I", "note": "[Dim22, 5-(1-(Cyclohexylmethyl)-2′-iodo-5-(naphthalen-2-yl)-1H,3′H-[2,4′-biimidazol]-3′-yl)-N-methylpentan-1-amine]", "values": [{"measurement": "solubility at 90 min", "setting": "Solubility in PBS pH 7.4", "value": "~10", "unit": "µM"}, {"measurement": "solubility at 1.5 h", "setting": "Solubility in PBS pH 7.4; 90 min", "value": 5.8, "unit": "µg/mL"}, {"measurement": "IC50", "setting": "[3]", "value": "36200 ± 5980", "unit": "nM"}, {"measurement": "IC50", "setting": "PCSK9/LDLR [4]", "value": "1990 ± 2860", "unit": "nM"}, {"measurement": "NADPH dependence of the observed metabolism", "setting": "[1]; mice", "value": "NADPH-dependent"}, {"measurement": "Cli", "setting": "[1]", "value": 57.0, "unit": "μL/min/mg protein"}, {"measurement": "clearance classification", "setting": "[1]; mouse liver microsomes, classification of Table S4", "value": "medium–high"}, {"measurement": "Cli", "setting": "[2]", "value": 51.5, "unit": "μL/min/mg protein"}, {"measurement": "clearance classification", "setting": "[2]; human liver microsomes, classification of Table S4", "value": "medium–high"}, {"measurement": "non-NADPH-dependent part of the observed metabolism", "setting": "[2]; humans", "value": 50, "unit": "%"}]}, {"compound": "C#Cc1ncc(-c2ncc(-c3ccc4ccccc4c3)n2CC2CCCCC2)n1CCCCCNC", "note": "[Dim23, 5-(1-(Cyclohexylmethyl)-2′-ethynyl-5-(naphthalen-2-yl)-1H,3′H-[2,4′-biimidazol]-3′-yl)-N-methylpentan-1-mine]", "values": [{"measurement": "HMG-CoAR activity IC50", "setting": "[3]", "value": "not active"}, {"measurement": "IC50", "setting": "PCSK9/LDLR [4]", "value": "1180 ± 1060", "unit": "nM"}]}, {"compound": "Cn1cnc(-c2ncc(-c3nc(-c4ncc(-c5ccccc5)n4C)cn3C)n2C)c1", "note": "[MeIm]", "values": [{"measurement": "IC50 value (PCSK9–LDLR interaction)", "setting": "PCSK9/LDLR [5]; in words", "value": "low-micromolar range"}]}, {"compound": "CNCCCCCn1cncc1-c1nc(-c2ncc(-c3ccc(OC)cc3)n2C)cn1CCc1ccccc1", "note": "[RIm14]", "values": [{"measurement": "affinity with PCSK9", "setting": "PCSK9/LDLR [5]; in words", "value": "low micromolar affinity"}]}, {"compound": "CNCCCCCn1cncc1-c1nc(-c2ncc(-c3ccc(OC)cc3)n2C)cn1Cc1ccccc1", "note": "[Rim13]", "values": [{"measurement": "affinity with PCSK9", "setting": "PCSK9/LDLR [5]; in words", "value": "low micromolar affinity"}, {"measurement": "IC50", "setting": "PCSK9/LDLR [5]; read-out: PCSK9/LDLR interaction IC50", "value": "1600 nM and ~1000 nM"}]}, {"compound": "LILPKHSDAD [P5, peptide P5 derived from lupin proteins]", "values": [{"measurement": "IC50", "setting": "[6]", "value": 147000, "unit": "nM"}, {"measurement": "IC50", "setting": "PCSK9/LDLR [5]; read-out: PCSK9/LDLR PPI IC50", "value": 1600, "unit": "nM"}]}]}
